Source: patent publication US9095613B2, “Photosensitizer-metal nanoparticle charge complex and composition containing the complex for photodynamic therapy or diagnosis” (NATIONAL CANCER CENTER, priority 2009, dated 2015)
Like-named read-outs stand apart in the source and are kept apart here.

Assays:
skin photosensitivity = settings: patient after administration; cited from earlier work
[1] = at 630 nm; cited from earlier work
SCC7 xenograft tumor [2] = test: Inhibition of tumor growth by photodynamic therapy in xenograft model; format: in vivo, Balb/c-nu mice; settings: 1 mg AlPcS4 equivalent/kg i.v., 670 nm 60 J/cm^2
Description: (§1) 2×10^6 cells per 100 μl of the SCC7 cell line were injected subcutaneously to hind legs of Balb/c-nu mice of 19 to 22 g to create xenograft tumor models. When a tumor was grown to a size of about […], 29 experimental animals were divided into three groups (Day 0) based on the tumor size. Among them, 6 mice were used for near-infrared fluorescence imaging using the photosensitizer, and the other 23 mice were used to observe an inhibitory effect on tumor growth through the photodynamic therapy. A volume of the tumor was calculated with an equation of height×length×width×0.5.
For each of the AlPcS4-treated group and the GNR/AlPcS4 complex-treated group, the drug (each of AlPcS4 and GNR/AlPcS4 complex prepared in Preparation Example 2-4) dissolved in PBS (6.7 mM, pH 7.4, NaCl 154 mM) was injected into a tail vein of a mouse at the dose of 1 mg AlPcS4 equivalent/kilogram body weight. […] To compare the near-infrared fluorescence image and the accumulated amount in the tumor of the injected photosensitizer, two mice were taken from each group after 24 hours from the treatment of the drug (Day 2), and therefrom fluorescence images of AlPcS4 were obtained using a near-infrared fluorescence image device (IVIS Lumina) (Cy5.5 channel; Ex. filter 615-665 nm, Em. Filter 695-770 nm). […]

[3] = tested on: SCC7 (Squamous cell Carcinoma) cell line; test: Quantitative analysis of uptake into cells (fluorescence of cell lysis solution); format: cell-based; settings: 5 μM AlPcS4 equivalent, 4 hours
Description: 90000 cells of a SCC7 (Squamous cell Carcinoma) cell line per well were seeded in a 96 well plate and cultured for 24 hours. Afterwards, the AlPcS4 and the GNR/AlPcS4 complex prepared in Preparation Example 2-4 were diluted with a cell culture medium containing serum to have an equivalent concentration of 5 μM AlPcS4. […] of the diluted solution per well was added, and maintained at 37° C. for 4 hours. Subsequently, after the cell culture medium containing the photosensitizer was removed, the cells were washed three times, and then treated with 200 μl of 0.1% SDS/0.1M NaOH solution for 2 hours for cell lysis. Then, a fluorescence signal of the AlPcS4 generated from this solution was measured (Ex. 660 nm, Em. 690 nm).

SCC7 cell line = test: Cell viability test after photodynamic therapy (CCK-8); format: cell-based; settings: 5 μM AlPcS4 equivalent, 670 nm, 10 J/cm^2, after 24 hours
Description: 9000 cells of a SCC7 cell line per well were seeded in a 96 well plate, and cultured for 24 hours. After the AlPcS4 and the GNR/AlPcS4 complex prepared in Preparation Example 2-4 were diluted with a cell culture medium to have an equivalent concentration of 5 μM AlPcS4, 200 μl of the diluted solution per well was added and then maintained at 37° C. for 4 hours. For a control group, the same volume of cell culture medium was added to the plate. Afterwards, to remove the photosensitizer which was not taken up into the cell, the cells were washed with a cell culture medium twice, and then a fresh cell culture medium was added. The PDT-treated groups were irradiated with light at 670 nm using laser under conditions of a light dose density of 50 mW/cm^2 and light doses of 5 J/cm^2 and 10 J/cm^2. After 24 hours, cell viability was measured using a cell counting kit-8 (CCK-8, Dojindo Laboratories).

[4] = at 675 nm, known value; cited from earlier work
SCC7 xenograft tumor [5] = test: Near-infrared fluorescence imaging of tumor in xenograft model; format: in vivo, Balb/c-nu mice; settings: 1 mg AlPcS4 equivalent/kg, tail vein, 24 hours after injection
Description: as §1
For each of the AlPcS4-treated group and the GNR/AlPcS4 complex-treated group, the drug (each of AlPcS4 and GNR/AlPcS4 complex prepared in Preparation Example 2-4) dissolved in PBS (6.7 mM, pH 7.4, NaCl 154 mM) was injected into a tail vein of a mouse at the dose of 1 mg AlPcS4 equivalent/kilogram body weight. […] To compare the near-infrared fluorescence image and the accumulated amount in the tumor of the injected photosensitizer, two mice were taken from each group after 24 hours from the treatment of the drug (Day 2), and therefrom fluorescence images of AlPcS4 were obtained using a near-infrared fluorescence image device (IVIS Lumina) (Cy5.5 channel; Ex. filter 615-665 nm, Em. Filter 695-770 nm).

average fluorescence signal in tumor (SCC7 xenograft tumor [5]) [counts]	tumor-to-background ratio of the AlPcS4 fluorescence (SCC7 xenograft tumor [5])	Compound	duration of side effect of skin photosensitivity (skin photosensitivity)	molar absorption coefficient [1] [M⁻¹ cm⁻¹]	course of tumor size after photodynamic therapy (SCC7 xenograft tumor [2])	size of the tumor relative to control group (SCC7 xenograft tumor [2]; fifth day) [%]	effect of increasing amount of serum (FBS) on uptake into cells [3]	phototoxicity (SCC7 cell line) [%]	molar absorption coefficient [4] [M⁻¹ cm⁻¹]
–	–	C=Cc1c(C)c2cc3nc(c(CC(=O)N[C@@H](CC(=O)[O-])C(=O)[O-])c4nc(cc5[nH]c(cc1[nH]2)c(C)c5CC)C(C)=C4C(=O)[O-])[C@@H](CCC(=O)[O-])[C@@H]3C.[Na+].[Na+].[Na+].[Na+] [Mono-L-aspartyl chlorine e6, mono-L-aspartyl chlorine e6]	1 week	–	–	–	–	–	–
–	–	Photofrin	more than 6 week	1170	–	–	–	–	–
7224	2.5	Al(III) phthalocyanine chloride tetrasulfonic acid [AlPcS4]	–	–	temporarily decreased	67	greatly decreased	64	170000
